Laboratory results: patent publication US20090291857A1, “METHODS TO IDENTIFY INHIBITORS OF THE UNFOLDED PROTEIN RESPONSE” (THE BOARD OF TRUSTEES OF THE LELAND STANFORD JUNIOR …, priority 2006, published 2009)

Legend:
[1] = Toxicity of increasing doses in SCID mice; assay type: in vivo
Protocol: Female 4-6 week-old SCID (B6.CB17) mice supplied by Stanford University Animal Facility were housed in the same facility (American Association of Laboratory Animal Care-approved) with 12 hour light cycles. Food and water were provided ad libitum. All experiments were approved by the institutional care and use committee. The potential toxicities of irestatin 9389 were examined in SCID mice injected i.p. once daily over 4 consecutive days with increasing doses of irestatin 9389 or vehicle control. […] For xenografts, 2×10^6 HT1080 fibrosarcoma cells were resuspended in 50-75 μl PBS and injected s.c. in the dorsal flanks of host mice. When the implanted tumors reached a mean volume of ˜150 mm^3, mice were randomly assigned into different treatment groups. Mice were dosed by i.p. bolus injection with either vehicle (50% DMSO, 20% cremophor EL, 30% ethanol) or irestatin 9389 (50 mg/kg). Tumors (6-8 per group) were measured every 2-4 days with calipers. Tumor volume was calculated using the formula [(W^2×L) 0.52] where W=width and L=length.

P58^IPK and DER-1 = assay: Northern blot analysis of XBP-1s transcription targets; assay type: cell-based, human; settings: 2 μM, Tm or hypoxia 24 hours
Protocol: Cells were cultured in 10 cm plates, harvested, and total RNA recovered with Trizol (Invitrogen, San Diego, Calif.). Total RNA (10 μg) was resolved on a 1% agarose-formaldehyde gel. ^32P-labeled probes were prepared using the Rediprime II random-prime labeling kit (GE-Amersham, Buckinghamshire, UK). The primers used to PCR amplify probes are as follows. P58^IPK: 5′[…] 3′ (SEQ ID NO: 4); 5′ […] 3′ (SEQ ID NO: 5). DER-1: 5′ […] 3′ (SEQ ID NO: 6); 5′[…] 3′ (SEQ ID NO: 7). Blots were incubated with probe overnight, washed three times in 2×SSC/0.2% SDS, dried, and exposed to a phosphorimager screen overnight. Images were analyzed using ImageQuant software (Molecular Dynamics).
A. XBP-luciferase reporter construct. Firefly luciferase was inserted downstream of the IRE1α splice site in human XBP-1 to enable the conditional translation of luciferase under ER stress in an IRE1α-dependent manner. […] After 24 hours, luciferase activity was analyzed in an automated plate reader. For each cell line, values are expressed as the percent inhibition of the median for Tm/Tg-treated wells, corrected for background. […] Values are expressed as the fold increases over uninduced levels. […] Cells were harvested, lysed, and analyzed by immunoblotting with antisera specific for HIF-1α (top), XBP-1s (middle) or actin (bottom). […] Total RNA was analyzed by Northern blotting using radiolabeled probes specific for P58^IPK or DER-1. […]

SMILES: Cc1csc(NC(=O)CSc2nc3c(c(C(F)(F)F)c2C#N)CCC3)n1 [Compound 9389]
- toxicity of dosing regimen ([1]; SCID mice, i.p., 50-60 mg/kg): without apparent toxicity
- dosing regimen of 50-60 mg/kg relative to LD50 ([1]; female, SCID (B6.CB17), mouse, in vivo, 4 days): 75 % of the LD50 value
- induction of P58^IPK and DER-1 expression (P58^IPK and DER-1): fully inhibited this response
